# According to ChEMBL document CHEMBL1201862, “PubChem BioAssay data set” (2004):
# Active and inactive are the calls of the source.
# Experiments:
# [1] = target: Alkaline phosphatase, placental type (Homo sapiens, UniProt P05187); assay: PLAP enzyme inhibitors, confirmation, biochemical, luminescence (AID 1512); format: functional
# [2] = target: T1, Alkaline phosphatase, tissue-nonspecific isozyme (Homo sapiens, UniProt P05186); assay: human TNAP enzyme inhibitors, SAR follow-up, biochemical, luminescent, dose response (AID 1056)
# T1 sequence (P05186 whole entry): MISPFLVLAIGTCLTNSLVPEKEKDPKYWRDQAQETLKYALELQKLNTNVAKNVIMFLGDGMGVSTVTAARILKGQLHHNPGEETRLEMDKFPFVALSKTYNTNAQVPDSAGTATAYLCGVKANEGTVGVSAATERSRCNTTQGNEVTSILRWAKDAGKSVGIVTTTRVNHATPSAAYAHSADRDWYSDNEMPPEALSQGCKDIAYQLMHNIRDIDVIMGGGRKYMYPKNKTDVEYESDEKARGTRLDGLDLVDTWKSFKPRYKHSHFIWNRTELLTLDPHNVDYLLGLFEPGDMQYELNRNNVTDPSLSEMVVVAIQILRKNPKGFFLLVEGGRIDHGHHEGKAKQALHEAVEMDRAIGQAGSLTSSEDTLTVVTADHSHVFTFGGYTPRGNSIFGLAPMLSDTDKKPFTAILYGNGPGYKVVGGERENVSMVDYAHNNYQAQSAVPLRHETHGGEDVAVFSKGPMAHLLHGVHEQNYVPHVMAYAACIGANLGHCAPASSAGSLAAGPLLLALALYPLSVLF
# [3] = target: T2, Tyrosine-protein phosphatase non-receptor type 22 (Homo sapiens, UniProt Q9Y2R2); format: functional
# T2 sequence (Q9Y2R2 whole entry): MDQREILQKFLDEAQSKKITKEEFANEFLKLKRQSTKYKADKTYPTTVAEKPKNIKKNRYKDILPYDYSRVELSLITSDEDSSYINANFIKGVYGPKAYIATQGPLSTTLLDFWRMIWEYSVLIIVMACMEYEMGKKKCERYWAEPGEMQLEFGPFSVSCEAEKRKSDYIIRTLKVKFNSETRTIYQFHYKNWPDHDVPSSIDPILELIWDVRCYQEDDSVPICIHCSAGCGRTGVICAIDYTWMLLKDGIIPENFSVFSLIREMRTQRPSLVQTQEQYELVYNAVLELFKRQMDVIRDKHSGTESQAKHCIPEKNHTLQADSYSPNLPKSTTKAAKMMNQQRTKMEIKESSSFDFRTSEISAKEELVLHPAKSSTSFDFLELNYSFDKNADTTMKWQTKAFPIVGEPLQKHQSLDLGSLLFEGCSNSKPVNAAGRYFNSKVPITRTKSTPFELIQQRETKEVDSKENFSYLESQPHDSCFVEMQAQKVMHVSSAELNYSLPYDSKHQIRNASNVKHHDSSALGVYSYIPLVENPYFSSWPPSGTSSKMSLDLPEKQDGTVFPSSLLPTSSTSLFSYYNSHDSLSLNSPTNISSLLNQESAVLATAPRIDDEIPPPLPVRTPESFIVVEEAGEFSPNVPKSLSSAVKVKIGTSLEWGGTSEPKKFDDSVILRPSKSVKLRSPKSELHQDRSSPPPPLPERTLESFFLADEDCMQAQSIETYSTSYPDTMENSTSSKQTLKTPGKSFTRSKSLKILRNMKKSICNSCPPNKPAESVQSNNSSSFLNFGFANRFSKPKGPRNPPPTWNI
# [4] = target: T3, Tyrosine-protein phosphatase non-receptor type 7 (Homo sapiens, UniProt P35236); format: functional
# T3 sequence (P35236 whole entry): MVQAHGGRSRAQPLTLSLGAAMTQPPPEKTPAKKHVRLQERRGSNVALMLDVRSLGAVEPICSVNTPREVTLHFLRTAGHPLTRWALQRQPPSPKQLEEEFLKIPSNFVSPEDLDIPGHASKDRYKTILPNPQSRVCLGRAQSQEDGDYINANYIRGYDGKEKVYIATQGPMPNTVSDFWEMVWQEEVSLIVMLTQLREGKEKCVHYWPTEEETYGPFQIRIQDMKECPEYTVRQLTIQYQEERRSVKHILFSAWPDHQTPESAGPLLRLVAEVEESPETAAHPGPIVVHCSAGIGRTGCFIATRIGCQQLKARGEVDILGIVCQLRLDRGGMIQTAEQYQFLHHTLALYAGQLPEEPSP
# [5] = target: T2, Tyrosine-protein phosphatase non-receptor type 22; format: functional; remark: listed apart in the source
# [6] = target: Glyceraldehyde-3-phosphate dehydrogenase (Homo sapiens, UniProt P04406)
# [7] = target: SUMO-activating enzyme (Homo sapiens, UniProt Q9UBT2); assay: SUMOylation inhibitor hit validation, confirmation, SUMOylation inhibitor project, biochemical, AlphaScreen (AID 2018); format: functional
# [8] = target: T4, G-protein coupled receptor 55 (Homo sapiens, UniProt Q9Y2T6); assay: GPR55 agonists via beta-arrestin recruitment, primary screen, imaging, U2OS cells, beta-arrestin-GFP redistribution (AID 1961); format: functional
# [9] = target: T5, Zinc finger protein mex-5 (Caenorhabditis elegans, UniProt Q9XUB2); assay: MEX-5/TCR-2 RNA interaction inhibitors, dose response, biochemical, C. elegans, fluorescence polarization (AID 1960)
# T5 sequence (Q9XUB2 whole entry): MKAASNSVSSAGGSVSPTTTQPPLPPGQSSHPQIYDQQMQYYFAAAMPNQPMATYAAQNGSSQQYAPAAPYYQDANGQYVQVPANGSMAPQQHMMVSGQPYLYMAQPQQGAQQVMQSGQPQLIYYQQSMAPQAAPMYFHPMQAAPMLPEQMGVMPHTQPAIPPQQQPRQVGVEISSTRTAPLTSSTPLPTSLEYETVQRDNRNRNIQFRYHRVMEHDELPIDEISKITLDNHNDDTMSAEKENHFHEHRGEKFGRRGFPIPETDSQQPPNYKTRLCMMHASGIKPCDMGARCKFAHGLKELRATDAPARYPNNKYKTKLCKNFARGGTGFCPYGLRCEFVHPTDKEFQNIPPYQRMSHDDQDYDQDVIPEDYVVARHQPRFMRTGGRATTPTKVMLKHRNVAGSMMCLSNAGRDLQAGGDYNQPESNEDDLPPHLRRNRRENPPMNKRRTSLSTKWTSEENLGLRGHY
# [10] = target: T6, RNA-binding protein pos-1 (Caenorhabditis elegans, UniProt G5EF15); assay: inhibitors of POS-1/mex-3 RNA binding, dose response, biochemical, fluorescence polarization (AID 1964);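 note: purified POS-1 fused to maltose binding protein made in E. coli; potency of compounds blocking POS-1 binding to fluorescent RNA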
# T6 sequence (G5EF15 whole entry): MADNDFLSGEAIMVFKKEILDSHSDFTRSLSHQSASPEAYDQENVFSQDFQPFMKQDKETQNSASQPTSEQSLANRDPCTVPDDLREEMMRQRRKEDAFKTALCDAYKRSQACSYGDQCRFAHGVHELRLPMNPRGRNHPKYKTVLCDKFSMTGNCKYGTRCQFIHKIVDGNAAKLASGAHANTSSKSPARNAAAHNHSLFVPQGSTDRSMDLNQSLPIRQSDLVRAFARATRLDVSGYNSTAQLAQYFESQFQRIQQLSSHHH
# [11] = target: T7, Cannabinoid receptor 1 (Homo sapiens, UniProt P21554); assay: SAR analysis of agonists of the Cannabinoid Receptor 1 using an Image-Based Assay - Set 3. [Related pubchem assays (depositor defined):AID1961, AID1965]; format: functional
# [12] = target: T4, G-protein coupled receptor 55; assay: SAR analysis of selective Agonists of GPR55 using an Image-Based Assay - Set 2. [Related pubchem assays (depositor defined):AID1961, AID1965]; format: functional
# [13] = target: T7, Cannabinoid receptor 1; assay: SAR analysis of antagonists of the Cannabinoid Receptor 1 using an Image-Based Assay - Set 3. [Related pubchem assays (depositor defined):AID1961, AID1965]; format: functional
# [14] = target: T8, Cannabinoid receptor 2 (Homo sapiens, UniProt P34972); assay: SAR analysis of agonists of the Cannabinoid Receptor 2 using an Image-Based Assay - Set 2. [Related pubchem assays (depositor defined):AID1961, AID1965]; format: functional
# [15] = target: T9, G-protein coupled receptor 35 (Homo sapiens, UniProt Q9HC97); assay: SAR analysis of Agonists of the GPR35 Receptor using an Image-Based Assay - Set 3. [Related pubchem assays (depositor defined):AID1961, AID1965]; format: functional
# [16] = target: T8, Cannabinoid receptor 2; assay: SAR analysis of antagonists of the Cannabinoid Receptor 2 using an Image-Based Assay - Set 2. [Related pubchem assays (depositor defined):AID1961, AID1965]; format: functional
# [17] = target: T9, G-protein coupled receptor 35; assay: SAR analysis of Antagonists of the GPR35 Receptor using an Image-Based Assay - Set 4. [Related pubchem assays (depositor defined):[…]]; format: functional
# [18] = inhibitors of intracellular T. cruzi replication, confirmation, NIH3T3 host cells, beta-gal luminescence (AID 2044); format: functional, cell-based;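 note: intracellular parasites grown in NIH/3T3 mouse fibroblasts as host cells; luminescent beta-galactosidase reporter signal from transgenic T. cruzi replicating inside host cells; inhibitors lower the luminescence signal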
# [19] = cells
# [20] = tested on: HEK293; assay: inhibitors of LMP1-driven NF-kB reporter, dose response, cell-based, HEK293, luciferase, cherry-pick (AID 588343); format: functional; conditions: Homo sapiens
# [21] = tested on: P388/ADR; assay: cells; format: functional; conditions: Mus musculus
# [22] = cells; format: functional
# [23] = cytotoxicity toward NIH3T3 fibroblasts, dose response, counter-screen, cell-based, ATP luminescence, mouse fibroblasts (AID 2010); format: functional;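 note: cells exposed to compound for about 90 hours before reading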
# [24] = HepG2 cell cytotoxicity, dose response, cytotoxicity control for non-replicating M. tuberculosis project (AID 489018); format: functional; conditions: Mycobacterium tuberculosis
# [25] = THP-1 cell cytotoxicity, dose response, cytotoxicity control for non-replicating M. tuberculosis project (AID 489025); format: functional
# [26] = tested on: P388; assay: cells; format: functional; conditions: Mus musculus
# [27] = tested on: SN12K1; assay: cells; format: functional; conditions: Homo sapiens
# [28] = tested on: Streptococcus sp. 'group A'; assay: growth inhibition of control SK(-) GAS strain, dose response, counter-screen for streptokinase expression inhibitor project, luminescence, kanamycin, BacTiterGlo, confirmation (AID 1900); format: functional, organism-based
# [29] = microbe, parasite or virus in culture; format: functional; conditions: Mycobacterium tuberculosis
# [30] = tested on: Streptococcus; assay: Group A Streptococcus viability loss, dose response, counter-screen for streptokinase expression inhibitor project, luminescence, BacTiterGlo (AID 1915); format: functional, organism-based;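 note: potency for reduction of bacterial viability or growth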
# T4 sequence (Q9Y2T6 whole entry): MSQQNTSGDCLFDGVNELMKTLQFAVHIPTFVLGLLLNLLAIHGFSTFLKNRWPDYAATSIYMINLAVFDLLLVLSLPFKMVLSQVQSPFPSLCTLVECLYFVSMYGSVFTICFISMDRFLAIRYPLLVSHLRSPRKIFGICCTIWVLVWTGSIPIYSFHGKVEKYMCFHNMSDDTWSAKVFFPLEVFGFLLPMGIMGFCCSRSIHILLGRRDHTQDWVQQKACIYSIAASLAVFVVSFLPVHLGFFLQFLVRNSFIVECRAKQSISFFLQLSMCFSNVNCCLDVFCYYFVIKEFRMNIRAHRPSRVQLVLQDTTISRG
# T9 sequence (Q9HC97 whole entry): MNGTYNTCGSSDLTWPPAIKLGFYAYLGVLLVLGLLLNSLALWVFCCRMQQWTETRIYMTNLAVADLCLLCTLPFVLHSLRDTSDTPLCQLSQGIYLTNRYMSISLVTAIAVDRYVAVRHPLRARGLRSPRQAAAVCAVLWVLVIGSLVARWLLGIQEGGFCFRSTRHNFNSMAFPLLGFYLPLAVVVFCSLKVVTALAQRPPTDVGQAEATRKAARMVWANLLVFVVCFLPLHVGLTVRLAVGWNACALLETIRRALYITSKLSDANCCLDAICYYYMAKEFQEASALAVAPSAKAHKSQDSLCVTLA
# T8 sequence (P34972 whole entry): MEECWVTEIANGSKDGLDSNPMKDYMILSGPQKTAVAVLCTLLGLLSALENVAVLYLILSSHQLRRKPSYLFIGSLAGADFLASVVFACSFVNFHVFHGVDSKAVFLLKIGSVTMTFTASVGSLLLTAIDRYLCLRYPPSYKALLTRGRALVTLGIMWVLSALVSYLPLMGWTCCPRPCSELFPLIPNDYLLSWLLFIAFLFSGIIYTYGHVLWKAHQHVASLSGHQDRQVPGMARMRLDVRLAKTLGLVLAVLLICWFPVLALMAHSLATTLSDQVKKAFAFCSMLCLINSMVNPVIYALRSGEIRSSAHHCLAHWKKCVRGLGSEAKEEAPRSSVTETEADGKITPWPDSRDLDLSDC
# T7 sequence (P21554 whole entry): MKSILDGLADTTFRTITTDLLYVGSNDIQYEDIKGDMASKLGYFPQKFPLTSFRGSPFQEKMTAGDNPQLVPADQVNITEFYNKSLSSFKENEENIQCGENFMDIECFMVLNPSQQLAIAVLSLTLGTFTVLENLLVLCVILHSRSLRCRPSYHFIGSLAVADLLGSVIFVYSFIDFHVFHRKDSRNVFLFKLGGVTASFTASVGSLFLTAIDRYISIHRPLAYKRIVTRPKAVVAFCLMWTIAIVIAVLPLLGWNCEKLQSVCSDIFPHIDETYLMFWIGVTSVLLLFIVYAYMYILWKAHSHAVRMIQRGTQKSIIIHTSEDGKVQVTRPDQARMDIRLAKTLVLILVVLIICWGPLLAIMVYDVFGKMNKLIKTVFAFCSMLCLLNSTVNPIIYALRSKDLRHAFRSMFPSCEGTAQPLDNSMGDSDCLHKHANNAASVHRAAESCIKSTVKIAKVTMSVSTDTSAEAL
# Sequence of Alkaline phosphatase, placental type (P05187 whole entry): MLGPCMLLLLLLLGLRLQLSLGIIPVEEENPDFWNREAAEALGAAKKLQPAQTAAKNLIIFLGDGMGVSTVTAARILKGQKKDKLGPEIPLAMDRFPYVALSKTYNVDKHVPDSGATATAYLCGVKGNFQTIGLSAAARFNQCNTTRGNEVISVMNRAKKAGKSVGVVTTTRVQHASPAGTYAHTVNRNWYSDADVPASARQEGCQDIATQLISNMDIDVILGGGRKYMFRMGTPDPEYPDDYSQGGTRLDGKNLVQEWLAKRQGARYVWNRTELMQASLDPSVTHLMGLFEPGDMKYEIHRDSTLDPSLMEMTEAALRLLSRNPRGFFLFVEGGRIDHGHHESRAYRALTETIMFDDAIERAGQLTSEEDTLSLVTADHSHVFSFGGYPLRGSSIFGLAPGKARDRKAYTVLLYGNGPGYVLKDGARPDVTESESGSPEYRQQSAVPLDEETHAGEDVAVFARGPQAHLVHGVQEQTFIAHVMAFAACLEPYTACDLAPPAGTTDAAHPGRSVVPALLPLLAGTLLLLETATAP
# Sequence of Glyceraldehyde-3-phosphate dehydrogenase (P04406 whole entry): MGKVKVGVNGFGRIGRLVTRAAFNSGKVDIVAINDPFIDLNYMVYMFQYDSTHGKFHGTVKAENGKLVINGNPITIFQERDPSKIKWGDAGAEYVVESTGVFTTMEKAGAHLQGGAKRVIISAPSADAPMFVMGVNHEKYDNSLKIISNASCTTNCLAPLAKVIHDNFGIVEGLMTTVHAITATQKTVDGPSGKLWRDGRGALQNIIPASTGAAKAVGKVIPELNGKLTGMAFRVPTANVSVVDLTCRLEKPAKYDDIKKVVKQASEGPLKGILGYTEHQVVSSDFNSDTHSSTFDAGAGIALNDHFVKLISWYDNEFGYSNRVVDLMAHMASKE
# Sequence of SUMO-activating enzyme (Q9UBE0 whole entry): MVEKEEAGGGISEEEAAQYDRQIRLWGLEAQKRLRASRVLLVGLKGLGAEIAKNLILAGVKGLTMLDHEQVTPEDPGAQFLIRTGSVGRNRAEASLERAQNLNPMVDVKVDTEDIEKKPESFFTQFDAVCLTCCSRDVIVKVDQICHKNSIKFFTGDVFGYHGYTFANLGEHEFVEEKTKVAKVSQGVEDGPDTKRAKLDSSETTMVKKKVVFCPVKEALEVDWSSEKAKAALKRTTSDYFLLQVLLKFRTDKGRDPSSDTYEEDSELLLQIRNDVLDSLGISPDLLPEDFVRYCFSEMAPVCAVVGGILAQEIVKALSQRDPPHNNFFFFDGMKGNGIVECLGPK
# Sequence of SUMO-activating enzyme (Q9UBT2 whole entry): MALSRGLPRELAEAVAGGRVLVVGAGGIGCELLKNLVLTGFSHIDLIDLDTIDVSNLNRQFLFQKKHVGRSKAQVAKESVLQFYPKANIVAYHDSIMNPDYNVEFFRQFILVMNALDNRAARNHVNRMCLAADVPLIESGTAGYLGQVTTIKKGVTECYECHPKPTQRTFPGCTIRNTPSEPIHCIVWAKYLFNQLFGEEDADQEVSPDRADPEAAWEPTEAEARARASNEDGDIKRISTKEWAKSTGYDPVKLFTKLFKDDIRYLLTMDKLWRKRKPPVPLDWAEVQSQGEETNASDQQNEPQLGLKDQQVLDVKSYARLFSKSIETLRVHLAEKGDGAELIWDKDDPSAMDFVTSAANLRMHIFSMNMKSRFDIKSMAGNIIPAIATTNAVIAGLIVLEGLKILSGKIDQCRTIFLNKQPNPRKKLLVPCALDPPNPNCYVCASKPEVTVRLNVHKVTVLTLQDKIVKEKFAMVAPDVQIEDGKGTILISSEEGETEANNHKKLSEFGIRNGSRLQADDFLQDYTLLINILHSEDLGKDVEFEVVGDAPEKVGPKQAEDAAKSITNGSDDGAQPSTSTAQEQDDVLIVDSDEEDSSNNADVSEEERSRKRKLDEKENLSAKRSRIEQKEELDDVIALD
structure (smiles),measurement,setting,value
C=CCN1C(=O)NC2(O)C(=O)c3ccccc3C12O (centres undefined),IC50,[1],12.7 µM (active)
same,IC50,[2],56.3 µM (active)
CC(C)Cc1nc(S(=O)(=O)c2ccc(Cl)cc2)c(N2CCOCC2)o1,IC50,[3],> 79.4 µM (inactive)
same,IC50,[4],> 79.4 µM (inactive)
same,IC50,[5],> 79.4 µM (inactive)
CCCc1nn(C(C)=O)c2c1C(=O)CC(C)(C)C2,IC50,[6],> 100 µM (not active)
same,IC50,[1],> 100 µM (inactive)
same,IC50,[2],19.1 µM (active)
NC(=O)CC(NC(=O)Cc1ccc(Br)cc1)c1ccc(NCCc2ccccc2F)c([N+](=O)[O-])c1 (centres undefined),IC50,[7],78.2 µM (active)
COc1cc2c(cc1OC)C(c1ccc(-c3ccc(Cl)cc3Cl)o1)=NCC2,EC50,[8],> 32 µM (inactive)
same,EC50,[9],> 300 µM (not active)
same,EC50,[10],> 300 µM (not active)
COc1ccc(S(=O)(=O)N2CCOCC2)cc1NC(=O)c1sc2cccc(F)c2c1C,EC50,[11],> 32 µM (inactive)
same,EC50,[12],> 32 µM (inactive)
same,IC50,[13],> 32 µM (inactive)
same,EC50,[14],> 32 µM (inactive)
same,EC50,[15],> 32 µM (inactive)
same,IC50,[16],> 32 µM (inactive)
same,IC50,[17],> 32 µM (inactive)
CN(C)S(=O)(=O)c1ccc(N2CCCC2)c(C(=O)N2CCN(c3ccccc3)CC2)c1,EC50,[11],> 32 µM (inactive)
same,EC50,[12],1.67 µM (active)
same,IC50,[13],> 32 µM (inactive)
same,EC50,[14],> 32 µM (inactive)
same,EC50,[15],> 32 µM (inactive)
same,IC50,[16],> 32 µM (inactive)
same,IC50,[17],> 32 µM (inactive)
CO[C@@]12[C@H](COC(N)=O)C3=C(C(=O)C(C)=C(N)C3=O)N1C[C@H]1[C@@H]2N1C (some centres undefined) [PORFIROMYCIN],EC50,[18],< 0.1 µM (active)
same,EC50,[19],0.088 µM (active)
same,AC50,[20],4.01 µM (active)
same,GI50,[21],7.74 µM (inactive)
same,IC50,[22],0.65 µM (active)
same,EC50,[23],6.8 µM (active)
same,CC50,[24],> 20 µM (active)
same,CC50,[25],1.32 µM (active)
same,GI50,[26],1.88 µM (inactive)
same,GI50,[27],3.9 µM (inactive)
same,EC50,[28],< 0.06 µM (active)
same,CC50,[29],28.3 µM (active)
same,EC50,[30],< 0.06 µM (active)
